Assay results published in ChEMBL document CHEMBL5346882 (Eur J Med Chem, 2023).
pIC50: −log10 of the molar value.

Key:
[1] = biological target: ATP-dependent translocase ABCB1 (Homo sapiens, UniProt P08183); test: Substrate activity at P-gp membranes (unknown origin) at 100 uM incubated for 40 mins by luminescent glo assay relative to control; type: ADME, cell membranes, Membrane
hERG (KCNH2) = hERG (KCNH2) (Homo sapiens, UniProt Q12809); test: Inhibition of human ERG at 10 uM relative to control; type: toxicity
Cytochrome P450 3A4 = Cytochrome P450 3A4 (Homo sapiens, UniProt P08684); test: Inhibition of CYP3A4 (unknown origin) at 10 uM; type: ADME
Chain of Cytochrome P450 3A4 (P08684 whole entry): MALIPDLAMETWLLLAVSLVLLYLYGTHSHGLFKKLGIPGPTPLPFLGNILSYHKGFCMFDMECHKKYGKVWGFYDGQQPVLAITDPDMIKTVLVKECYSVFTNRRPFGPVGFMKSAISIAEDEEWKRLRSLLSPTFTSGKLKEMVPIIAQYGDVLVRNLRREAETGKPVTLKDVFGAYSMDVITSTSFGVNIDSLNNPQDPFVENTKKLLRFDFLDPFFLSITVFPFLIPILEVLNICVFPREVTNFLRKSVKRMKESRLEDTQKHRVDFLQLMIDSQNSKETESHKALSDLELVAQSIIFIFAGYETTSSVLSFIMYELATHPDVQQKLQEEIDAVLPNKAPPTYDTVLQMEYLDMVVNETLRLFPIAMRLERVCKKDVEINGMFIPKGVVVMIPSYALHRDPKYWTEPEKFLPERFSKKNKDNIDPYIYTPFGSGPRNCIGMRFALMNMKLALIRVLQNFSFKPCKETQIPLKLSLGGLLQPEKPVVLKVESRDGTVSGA

Cytochrome P450 2D6 = Cytochrome P450 2D6 (Homo sapiens, UniProt P10635); test: Inhibition of CYP2D6 (unknown origin) at 10 uM; type: ADME
Chain of Cytochrome P450 2D6 (P10635 whole entry): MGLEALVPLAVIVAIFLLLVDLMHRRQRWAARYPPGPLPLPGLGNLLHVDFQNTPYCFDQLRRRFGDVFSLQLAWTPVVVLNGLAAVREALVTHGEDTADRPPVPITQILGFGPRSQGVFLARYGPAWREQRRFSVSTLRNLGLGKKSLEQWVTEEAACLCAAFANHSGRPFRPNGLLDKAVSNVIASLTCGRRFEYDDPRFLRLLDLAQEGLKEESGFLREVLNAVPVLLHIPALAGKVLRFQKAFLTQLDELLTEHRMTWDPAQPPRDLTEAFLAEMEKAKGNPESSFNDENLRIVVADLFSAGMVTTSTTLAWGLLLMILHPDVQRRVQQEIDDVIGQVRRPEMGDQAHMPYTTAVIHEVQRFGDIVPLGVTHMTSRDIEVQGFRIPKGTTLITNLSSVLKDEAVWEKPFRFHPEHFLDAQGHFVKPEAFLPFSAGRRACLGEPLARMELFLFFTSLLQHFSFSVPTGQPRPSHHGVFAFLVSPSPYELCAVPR

in vitro = conditions: human, HepG2 cells
Description: Hepatotoxicity in human HepG2 cells assessed as reduction in cell viability incubated for 72 hrs by MTS assay

[2] = Drug metabolism in human liver microsomes assessed as oxidation mediated metabolite formation; type: ADME, Microsome
[3] = Drug metabolism in human liver microsomes assessed as hydroxylation mediated metabolite formation; type: ADME, Microsome
[4] = Drug metabolism in human liver microsomes assessed as N-dealkylation mediated metabolite formation; type: ADME, Microsome
Cholinesterase [5] = biological target: Cholinesterase (Equus caballus, UniProt P81908)
Chain of Cholinesterase (Equus caballus, UniProt P81908) (P81908 whole entry): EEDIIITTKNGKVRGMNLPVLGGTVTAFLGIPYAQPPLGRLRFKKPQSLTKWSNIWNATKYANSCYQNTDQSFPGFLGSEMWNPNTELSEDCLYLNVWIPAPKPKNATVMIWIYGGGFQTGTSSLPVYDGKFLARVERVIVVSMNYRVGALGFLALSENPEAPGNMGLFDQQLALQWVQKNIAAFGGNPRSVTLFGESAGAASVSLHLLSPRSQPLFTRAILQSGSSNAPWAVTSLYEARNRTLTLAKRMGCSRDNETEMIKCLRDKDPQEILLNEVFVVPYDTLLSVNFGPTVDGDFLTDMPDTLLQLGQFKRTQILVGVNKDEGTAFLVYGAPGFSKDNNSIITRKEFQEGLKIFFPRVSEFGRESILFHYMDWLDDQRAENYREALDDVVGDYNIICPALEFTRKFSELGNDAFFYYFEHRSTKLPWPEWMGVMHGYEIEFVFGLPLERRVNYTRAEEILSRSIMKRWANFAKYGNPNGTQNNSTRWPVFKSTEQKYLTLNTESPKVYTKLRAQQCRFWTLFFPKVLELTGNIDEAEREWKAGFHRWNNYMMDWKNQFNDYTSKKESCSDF
Description: Inhibition of horse serum BuChE using butyrylthiocholine iodide as substrate preincubated for 5 mins followed by substrate addition and measured after 5 mins by DTNB-reagent based Ellman's method

Cholinesterase [6] = biological target: T1, Cholinesterase (Homo sapiens, UniProt P06276)
T1 sequence (P06276 whole entry): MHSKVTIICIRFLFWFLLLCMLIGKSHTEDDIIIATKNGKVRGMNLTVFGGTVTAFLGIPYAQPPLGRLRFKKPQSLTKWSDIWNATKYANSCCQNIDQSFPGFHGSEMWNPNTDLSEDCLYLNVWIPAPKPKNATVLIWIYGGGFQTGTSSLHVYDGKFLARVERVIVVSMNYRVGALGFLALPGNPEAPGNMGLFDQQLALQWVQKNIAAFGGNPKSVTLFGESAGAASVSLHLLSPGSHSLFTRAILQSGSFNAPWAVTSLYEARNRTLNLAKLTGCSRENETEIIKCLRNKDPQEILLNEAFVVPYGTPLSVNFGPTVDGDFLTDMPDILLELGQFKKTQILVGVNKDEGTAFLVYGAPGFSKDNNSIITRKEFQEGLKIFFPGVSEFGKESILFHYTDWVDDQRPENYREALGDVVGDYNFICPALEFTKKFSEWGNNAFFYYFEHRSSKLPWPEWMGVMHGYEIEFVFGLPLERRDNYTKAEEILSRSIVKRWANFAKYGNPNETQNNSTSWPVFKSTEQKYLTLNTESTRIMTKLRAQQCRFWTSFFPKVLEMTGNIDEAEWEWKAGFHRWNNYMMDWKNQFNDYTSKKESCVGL
Description: Inhibition of human recombinant BuChE using butyrylthiocholine iodide as substrate preincubated for 5 mins followed by substrate addition and measured after 5 mins by DTNB-reagent based Ellman's method

[7] = Metabolic stability in human liver microsomes assessed as parent compound remaining incubated for 120 mins in presence of NADPH regeneration system by UPLC/MS analysis; type: ADME, Microsome; conditions: read-out: Stability
Cholinesterase [8] = biological target: T1, Cholinesterase; test: Inhibition of human recombinant BuChE using butyrylthiocholine iodide as substrate at 1 uM preincubated for 5 mins followed by substrate addition and measured after 5 mins by DTNB-reagent based Ellman's method relative to control; conditions: time 10.0 min
[9] = biological target: Cholinesterase (Equus caballus) (UniProt P81908); test: Inhibition of horse serum BuChE using butyrylthiocholine iodide as substrate at 10 uM preincubated for 5 mins followed by substrate addition and measured after 5 mins by DTNB-reagent based Ellman's method relative to control; type: cell-free; conditions: time 10.0 min
Chain of Cholinesterase (Equus caballus) (P81908 whole entry): as the sequence (P81908 whole entry) above

cells [10] = conditions: Mus musculus, HEK293
Description: Inhibition of mouse GAT3 expressed in HEK293 cells assessed as reduction in [3H]-GABA uptake incubated for 10 mins

GABA transporter 4 = biological target: T2, GABA transporter 4 (Mus musculus, UniProt P31650); test: Inhibition of mouse GAT4 expressed in HEK293 cells assessed as reduction in [3H]-GABA uptake incubated for 10 mins; type: cell-based
T2 sequence (P31650 whole entry): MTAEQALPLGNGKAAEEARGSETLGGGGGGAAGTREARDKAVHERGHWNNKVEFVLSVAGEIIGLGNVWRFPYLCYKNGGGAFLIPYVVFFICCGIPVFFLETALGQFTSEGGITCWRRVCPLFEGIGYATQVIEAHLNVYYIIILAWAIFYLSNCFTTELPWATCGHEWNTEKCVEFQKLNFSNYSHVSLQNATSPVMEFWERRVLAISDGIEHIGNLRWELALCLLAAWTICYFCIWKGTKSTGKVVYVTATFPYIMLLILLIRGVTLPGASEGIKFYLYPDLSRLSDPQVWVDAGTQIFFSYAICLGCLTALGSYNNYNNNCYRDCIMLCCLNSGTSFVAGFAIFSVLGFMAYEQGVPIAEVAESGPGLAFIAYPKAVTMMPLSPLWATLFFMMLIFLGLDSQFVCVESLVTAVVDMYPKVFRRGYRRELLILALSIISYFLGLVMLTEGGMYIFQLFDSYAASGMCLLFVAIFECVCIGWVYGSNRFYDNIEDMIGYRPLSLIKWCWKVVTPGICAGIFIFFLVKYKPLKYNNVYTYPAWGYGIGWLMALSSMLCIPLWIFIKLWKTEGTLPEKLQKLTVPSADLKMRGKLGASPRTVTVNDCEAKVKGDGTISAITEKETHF

[11] = biological target: Sodium- and chloride-dependent GABA transporter 1 (Mus musculus, UniProt P31648); test: Inhibition of mouse GAT1 expressed in HEK293 cells assessed as reduction in [3H]-GABA uptake incubated for 10 mins; type: cell-based
cells [12] = conditions: Mus musculus, HEK293; remark: listed apart in the source
Description: Inhibition of mouse GAT2 expressed in HEK293 cells assessed as reduction in [3H]-GABA uptake incubated for 10 mins

[13] = Toxicity in Albino Swiss CD-1 mouse model of scopolamine induced memory deficit assessed as sedation at 30 mg/kg, ip pretreated for 30 mins followed by scopolamine administration and measured after 30 mins; type: organism-based; conditions: in vivo, 1 h, time 60 min
[14] = Toxicity in Albino Swiss CD-1 mouse model of scopolamine induced memory deficit assessed as motor deficit at 30 mg/kg, ip pretreated for 30 mins followed by scopolamine administration and measured after 30 mins; type: organism-based; conditions: in vivo, 1 h, time 60 min

Chain of ATP-dependent translocase ABCB1 (P08183 whole entry): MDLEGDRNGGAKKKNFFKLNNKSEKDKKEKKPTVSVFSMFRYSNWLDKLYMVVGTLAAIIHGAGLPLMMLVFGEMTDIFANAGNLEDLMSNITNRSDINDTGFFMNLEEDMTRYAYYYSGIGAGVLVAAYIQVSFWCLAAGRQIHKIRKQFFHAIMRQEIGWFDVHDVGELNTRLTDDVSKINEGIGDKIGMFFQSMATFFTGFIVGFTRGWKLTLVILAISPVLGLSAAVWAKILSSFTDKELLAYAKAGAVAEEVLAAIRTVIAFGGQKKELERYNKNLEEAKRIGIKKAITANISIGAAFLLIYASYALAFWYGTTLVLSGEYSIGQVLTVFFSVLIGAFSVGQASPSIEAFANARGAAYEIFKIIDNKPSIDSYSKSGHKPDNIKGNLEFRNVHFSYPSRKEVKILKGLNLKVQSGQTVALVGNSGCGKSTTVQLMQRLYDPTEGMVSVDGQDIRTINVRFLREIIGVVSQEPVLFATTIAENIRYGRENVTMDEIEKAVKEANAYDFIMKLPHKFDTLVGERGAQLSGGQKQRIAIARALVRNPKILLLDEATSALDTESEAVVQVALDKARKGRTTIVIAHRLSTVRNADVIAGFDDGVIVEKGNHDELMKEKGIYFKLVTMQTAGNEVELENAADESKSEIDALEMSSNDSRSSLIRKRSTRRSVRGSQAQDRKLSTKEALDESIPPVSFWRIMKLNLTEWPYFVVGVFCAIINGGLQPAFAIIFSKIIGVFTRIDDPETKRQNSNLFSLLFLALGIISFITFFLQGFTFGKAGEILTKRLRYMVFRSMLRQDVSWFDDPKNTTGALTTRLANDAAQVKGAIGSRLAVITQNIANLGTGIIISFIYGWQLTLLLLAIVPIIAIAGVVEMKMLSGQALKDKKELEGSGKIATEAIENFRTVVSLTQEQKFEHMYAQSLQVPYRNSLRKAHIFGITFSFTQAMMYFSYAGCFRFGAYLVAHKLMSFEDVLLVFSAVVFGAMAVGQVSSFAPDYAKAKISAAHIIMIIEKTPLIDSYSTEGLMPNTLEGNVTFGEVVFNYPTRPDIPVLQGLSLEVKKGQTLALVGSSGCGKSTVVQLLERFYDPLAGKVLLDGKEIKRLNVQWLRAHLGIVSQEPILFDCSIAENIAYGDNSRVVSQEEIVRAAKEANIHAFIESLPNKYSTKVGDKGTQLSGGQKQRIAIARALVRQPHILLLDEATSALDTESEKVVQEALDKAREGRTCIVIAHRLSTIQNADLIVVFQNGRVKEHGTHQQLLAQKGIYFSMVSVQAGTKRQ

For `O=C(CC(c1ccccc1)c1ccccc1)NC[C@@H](O)CNCC1CCCCC1`, which Activity [1] is on record?
Its Activity is “<= 190%”.

And the inhibition at 10 µM (hERG (KCNH2))?
Its inhibition at 10 µM is under 50%.

And the “inhibition (INH)” value (Cytochrome P450 3A4)?
Its value is “Active”.

And the “inhibition (INH)” value (Cytochrome P450 2D6)?
The value was “Active”.

What about the CC50 at 72 h (in vitro) of the same compound?
The CC50 at 72 h was 3210 nM.

What does the source list for `O=C(CC(c1ccccc1)c1ccccc1)NCC(O)CNCc1ccccc1` (racemic)?
Drug metabolism [2]: Metabolite_Detected; inhibition (INH) (Cytochrome P450 3A4): Active; Drug metabolism [3]: Metabolite_Detected; Drug metabolism [4]: Metabolite_Detected; inhibition (INH) (Cytochrome P450 2D6): Active; pIC50 (Cholinesterase [5]): 6.21; pIC50 (Cholinesterase [6]): 6.55; remaining at 2 h [7]: 66%

What does the source list for `C[C@H](NCC(O)CNC(=O)CC(c1ccccc1)c1ccccc1)c1ccccc1` (mixture of isomers)?
inhibition (Cholinesterase [8]): 34%; pIC50 (Cholinesterase [5]): 5.32

Which inhibition [9] does the source give for `O=C(NCC(O)CNCC1CC1)C(c1ccccc1)c1ccccc1` (racemic) here?
The inhibition was 47%.

And the inhibition (Cholinesterase [8])?
Its inhibition is under 20%.

With `COc1cccc(CNCC(O)CNC(=O)CC(c2ccccc2)c2ccccc2)c1` (racemic) as the compound, how does the pIC50 (Cholinesterase [5]) read?
The pIC50 was 6.18.

What about the pIC50 (Cholinesterase [6]) of the same compound?
The pIC50 was 6.60.

With `CC(C)c1cccc(CNCC(O)CNC(=O)CC(c2ccccc2)c2ccccc2)c1` (racemic) as the compound, how does the pIC50 (Cholinesterase [5]) read?
Its pIC50 is 6.20.

What about the pIC50 (Cholinesterase [6]) of the same compound?
Its pIC50 is 6.59.

With `CC(C)(C)c1ccc(CNCC(O)CNC(=O)CC(c2ccccc2)c2ccccc2)cc1` (racemic) as the compound, how does the pIC50 (Cholinesterase [5]) read?
The pIC50 was 5.71.

What about the pIC50 (Cholinesterase [6]) of the same compound?
Its pIC50 is 6.80.

For `CC(C)(NCC(O)CNC(=O)CC(c1ccccc1)c1ccccc1)c1ccccc1` (racemic), which inhibition [9] is on record?
Its inhibition is 44%.

What about the inhibition (Cholinesterase [8]) of the same compound?
Its inhibition is under 20%.

With `O=C(CC(c1ccccc1)c1ccccc1)NCC(O)CNCc1cccc(C(F)(F)F)c1` (racemic) as the compound, how does the pIC50 (Cholinesterase [5]) read?
Its pIC50 is 5.76.

What about the pIC50 (Cholinesterase [6]) of the same compound?
The pIC50 was 6.39.

With `CC(C)(C)c1ccc(CNCC(O)CNC(=O)C(c2ccccc2)c2ccccc2)cc1` (racemic) as the compound, how does the pIC50 (Cholinesterase [5]) read?
Its pIC50 is 5.95.

What about the pIC50 (Cholinesterase [6]) of the same compound?
The pIC50 was 6.52.

Which results are given for `O=C(NCC(O)CNCc1cccc(C(F)(F)F)c1)C(c1ccccc1)c1ccccc1` (racemic)?
pIC50 (Cholinesterase [5]): 6.02; pIC50 (Cholinesterase [6]): 6.15

Which results are given for `CC(C)(C)c1cccc(CNCC(O)CNC(=O)CC(c2ccccc2)c2ccccc2)c1` (racemic)?
pIC50 (cells [10]): < 5.00; pIC50 (GABA transporter 4): < 5.00; pIC50 [11]: < 5.00; pIC50 (cells [12]): < 5.00; pIC50 (Cholinesterase [5]): 6.49; pIC50 (Cholinesterase [6]): 6.74

Which results are given for `COc1cccc(CNCC(O)CNC(=O)C(c2ccccc2)c2ccccc2)c1` (racemic)?
inhibition (Cholinesterase [8]): 70%; pIC50 (Cholinesterase [5]): 5.66

With `O=C(NCC(O)CNCc1ccccc1)C(c1ccccc1)c1ccccc1` (racemic) as the compound, how does the pIC50 (cells [10]) read?
The pIC50 was under 5.00.

And the pIC50 (GABA transporter 4)?
The pIC50 was under 5.00.

What about the pIC50 [11] of the same compound?
The pIC50 was under 5.00.

What about the pIC50 (cells [12]) of the same compound?
The pIC50 was under 5.00.

What about the inhibition (Cholinesterase [8]) of the same compound?
The inhibition was under 20%.

What about the pIC50 (Cholinesterase [5]) of the same compound?
Its pIC50 is 5.60.

With `O=C(CC(c1ccccc1)c1ccccc1)NC[C@H](O)CNCC1CCCCC1` as the compound, how does the Activity [1] read?
Its Activity is “<= 190%”.

And the inhibition at 10 µM (hERG (KCNH2))?
Its inhibition at 10 µM is under 50%.

What about the Activity [13] of the same compound?
Its Activity is “Toxic”.

And the “inhibition (INH)” value (Cytochrome P450 3A4)?
The value was “Active”.

What about the Activity [14] of the same compound?
The Activity was “Toxic”.

What about the “inhibition (INH)” value (Cytochrome P450 2D6) of the same compound?
Its value is “Active”.

And the CC50 at 72 h (in vitro)?
Its CC50 at 72 h is 2850 nM.

With `CC(C)(C)c1cccc(CNCC(O)CNC(=O)C(c2ccccc2)c2ccccc2)c1` (racemic) as the compound, how does the pIC50 (cells [10]) read?
Its pIC50 is under 5.00.

What about the pIC50 (GABA transporter 4) of the same compound?
Its pIC50 is under 5.00.

What about the pIC50 [11] of the same compound?
Its pIC50 is under 5.00.

And the pIC50 (cells [12])?
Its pIC50 is under 5.00.

And the pIC50 (Cholinesterase [5])?
Its pIC50 is 6.59.

What about the pIC50 (Cholinesterase [6]) of the same compound?
Its pIC50 is 7.00.

Which results are given for `O=C(NC[C@@H](O)CNCC1CCCCC1)C(c1ccccc1)c1ccccc1`?
inhibition (INH) (Cytochrome P450 3A4): Active; inhibition (INH) (Cytochrome P450 2D6): Active; CC50 at 72 h (in vitro): 25800 nM

With `O=C(CC(c1ccccc1)c1ccccc1)NCC(O)CNCC1CC1` (racemic) as the compound, how does the pIC50 (cells [10]) read?
The pIC50 was under 5.00.

What about the pIC50 (GABA transporter 4) of the same compound?
Its pIC50 is under 5.00.

And the pIC50 [11]?
Its pIC50 is under 5.00.

What about the pIC50 (cells [12]) of the same compound?
The pIC50 was under 5.00.

What about the inhibition (Cholinesterase [8]) of the same compound?
The inhibition was 46%.

What about the pIC50 (Cholinesterase [5]) of the same compound?
Its pIC50 is 5.45.

Which inhibition (Cholinesterase [8]) does the source give for `C[C@H](NCC(O)CNC(=O)C(c1ccccc1)c1ccccc1)c1ccccc1` (mixture of isomers) here?
Its inhibition is under 20%.

And the pIC50 (Cholinesterase [5])?
The pIC50 was 5.34.

Which inhibition [9] does the source give for `CC(C)(NCC(O)CNC(=O)C(c1ccccc1)c1ccccc1)c1ccccc1` (racemic) here?
The inhibition was 42%.

What about the inhibition (Cholinesterase [8]) of the same compound?
The inhibition was under 20%.

Which results are given for `O=C(NC[C@H](O)CNCC1CCCCC1)C(c1ccccc1)c1ccccc1`?
inhibition (INH) (Cytochrome P450 3A4): Active; inhibition (INH) (Cytochrome P450 2D6): Active; CC50 at 72 h (in vitro): 18700 nM

For `O=C(NCC(O)CNCC1CCCCC1)C(c1ccccc1)c1ccccc1` (stereo not drawn), which “inhibition (INH)” value (Cytochrome P450 3A4) is on record?
Its value is “Active”.

What about the Drug metabolism [4] of the same compound?
Its Drug metabolism is “Metabolite_Detected”.

What about the “inhibition (INH)” value (Cytochrome P450 2D6) of the same compound?
The value was “Active”.

What about the remaining at 2 h [7] of the same compound?
Its remaining at 2 h is over 80%.
